Measured values published in patent US20250320206A1, “STAT6 DEGRADERS” (Gilead Sciences, Inc., priority 2024, published 2025).

How the values were obtained:
STAT6 = target: T1, STAT6 (Homo sapiens, UniProt P42226); assay: Stat6 Degrader Assay (HiBiT based, HeLa LgBiT clone 4.14); assay type: cell-based; details: HeLa LgBiT clone 4.14 HiBiT-STAT6, 4-24 h incubation; for DC50: values given for compounds with >80% Emax, geometric mean, read-out: STAT6 degradation DC50
T1 construct: These cells express endogenous STAT6; host or cells: HeLa LgBiT clone 4.14
T1 sequence (P42226 1-847): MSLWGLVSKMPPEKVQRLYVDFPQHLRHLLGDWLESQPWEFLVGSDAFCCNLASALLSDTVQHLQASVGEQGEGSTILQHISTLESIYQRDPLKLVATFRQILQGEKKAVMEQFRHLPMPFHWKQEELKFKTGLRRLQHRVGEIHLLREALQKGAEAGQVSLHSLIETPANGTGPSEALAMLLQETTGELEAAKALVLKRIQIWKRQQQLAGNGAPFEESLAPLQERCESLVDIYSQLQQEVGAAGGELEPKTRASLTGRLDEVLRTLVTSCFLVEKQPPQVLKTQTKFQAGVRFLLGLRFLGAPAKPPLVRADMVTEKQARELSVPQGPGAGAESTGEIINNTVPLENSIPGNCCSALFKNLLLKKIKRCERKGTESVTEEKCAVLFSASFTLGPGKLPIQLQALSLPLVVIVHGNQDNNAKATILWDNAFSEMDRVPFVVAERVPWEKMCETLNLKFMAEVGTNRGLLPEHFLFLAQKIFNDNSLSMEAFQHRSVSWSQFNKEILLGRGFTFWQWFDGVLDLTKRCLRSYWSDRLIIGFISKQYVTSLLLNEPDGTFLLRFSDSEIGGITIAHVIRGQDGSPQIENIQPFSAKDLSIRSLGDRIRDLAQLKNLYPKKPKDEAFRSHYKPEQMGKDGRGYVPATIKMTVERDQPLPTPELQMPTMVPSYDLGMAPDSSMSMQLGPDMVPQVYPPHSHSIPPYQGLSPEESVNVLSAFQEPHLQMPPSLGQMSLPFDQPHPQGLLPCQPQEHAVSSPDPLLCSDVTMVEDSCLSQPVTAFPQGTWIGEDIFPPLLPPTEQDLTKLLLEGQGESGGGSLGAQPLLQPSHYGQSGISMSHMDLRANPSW
Procedure, shortened: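 HeLa LgBiT clone 4.14 cells with CRISPR HiBiT-tagged endogenous STAT6, 5000 cells/well, compound dosed then incubated 4-24 h at 37° C, 5% CO2. Nano-Glo substrate added, 0.5 h, luminescence read as non-degraded STAT6. Terfenadine 50 μM (cell kill) defines 100% degradation.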

[1] = system: Eotaxin-3 release in human whole blood stimulated with IL-4; assay: Human Whole Blood Eotaxin-3 Assay (IL-4 stimulated eotaxin-3 release); assay type: cell-based; details: IL-4 stimulation, 48 h, values given for compounds with >80% Emax, geometric mean
Procedure, shortened: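 Lithium-heparin human whole blood preincubated 2 h at 37° C with 4-fold serially diluted compounds (0.5% DMSO), then stimulated with recombinant human IL-4 ([…]) for 48 h. Eotaxin-3 (CCL26) in supernatant quantified by MSD immunoassay.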

SMILES	DC50 (STAT6)	EC50 [1]	Emax (STAT6; read-out: STAT6 degradation Emax)
CNc1ccn(-c2ccnc3c2cc([C@H](C)N2CC=C(c4c(C)cc(C(=O)N5CCC(CN6CCN(Cc7ccc8c(c7)n(C7CC7)c(=O)n8C7CCC(=O)NC7=O)CC6)CC5)cc4F)CC2)n3C)c(=O)c1 (stereo partly drawn) [Example 3u122, 3-(3-cyclopropyl-5-((4-((1-(3-fluoro-5-methyl-4-(1-((S)-1-(1-methyl-4-(4-(methylamino)-2-oxopyridin-1 (2H)-yl)-1H-pyrrolo[2,3-b]pyridin-2-yl)ethyl)-1,2,3,6-tetrahydropyridin-4-yl)benzoyl)piperidin-4-yl)methyl)piperazin-1-yl)methyl)-2-oxo-2,3-dihydro-1H-benzo[d]imidazol-1-yl)piperidine-2,6-dione]	1.2 nM	0.6 nM	–
CNc1ccn(-c2ccnc3c2cc(CN2CC=C(c4c(F)cc(C(=O)N5CCC(CN6CCN(Cc7ccc8c(c7)C(C)(C)C(=O)N8C7CCC(=O)NC7=O)C[C@@H]6C)CC5)cc4F)CC2)n3C)c(=O)c1 (stereo partly drawn) [Example 3u45, 3-(5-(((S)-4-((1-(3,5-difluoro-4-(1-((1-methyl-4-(4-(methylamino)-2-oxopyridin-1 (2H)-yl)-1H-pyrrolo[2,3-b]pyridin-2-yl)methyl)-1,2,3,6-tetrahydropyridin-4-yl)benzoyl)piperidin-4-yl)methyl)-3-methylpiperazin-1-yl)methyl)-3,3-dimethyl-2-oxoindolin-1-yl)piperidine-2,6-dione]	3.9 nM	4.5 nM	–
CNc1cc(=O)n(-c2ccnc3c2cc(CN2CCC(c4c(F)cc(C(=O)N5CCC(CN6CCN(c7ccc8c(c7)C7(CC7)C(=O)N8C7CCC(=O)NC7=O)CC6)CC5)cc4F)CC2)n3C)cc1F (stereo not shown) [Example 3u301, 3-(5′-(4-((1-(3,5-difluoro-4-(1-((4-(5-fluoro-4-(methylamino)-2-oxopyridin-1 (2H)-yl)-1-methyl-1H-pyrrolo[2,3-b]pyridin-2-yl)methyl)piperidin-4-yl)benzoyl)piperidin-4-yl)methyl)-piperazin-1-yl)-2′-oxospiro[cyclopropane-1,3′-indolin]-1′-yl)piperidine-2,6-dione]	–	90.5 nM	20 to 30%
Cc1cc(C(=O)N2CCC(CN3CCN(Cc4cc5c(cc4F)n(C4CCC(=O)NC4=O)c(=O)n5C4CC4)CC3)CC2)cc(F)c1C1=CCN([C@@H](C)c2cc3c(-n4ccc5c(c4=O)CCN5)ccnc3n2C)CC1 (stereo partly drawn) [Example 3u146, 3-(3-cyclopropyl-6-fluoro-5-((4-((1-(3-fluoro-5-methyl-4-(1-((S)-1-(1-methyl-4-(4-oxo-1,2,3,4-tetrahydro-5H-pyrrolo[3,2-c]pyridin-5-yl)-1H-pyrrolo[2,3-b]pyridin-2-yl)ethyl)-1,2,3,6-tetrahydropyridin-4-yl)benzoyl)piperidin-4-yl)methyl)piperazin-1-yl)methyl)-2-oxo-2,3-dihydro-1H-benzo[d]imidazol-1-yl)piperidine-2,6-dione]	1.7 nM	1.4 nM	–
CNc1cc(=O)n(-c2ccnc3c2cc(CN2CC=C(c4c(F)cc(C(=O)N5CCC(CN6CCN(Cc7ccc8c(c7)n(C7CC7)c(=O)n8C7CCC(=O)NC7=O)C[C@@H]6C)CC5)cc4F)CC2)n3C)cc1F (stereo partly drawn) [Example 3u213, 3-(3-cyclopropyl-5-(((S)-4-((1-(3,5-difluoro-4-(1-((4-(5-fluoro-4-(methylamino)-2-oxopyridin-1 (2H)-yl)-1-methyl-1H-pyrrolo[2,3-b]pyridin-2-yl)methyl)-1,2,3,6-tetrahydropyridin-4-yl)benzoyl)piperidin-4-yl)methyl)-3-methylpiperazin-1-yl)methyl)-2-oxo-2,3-dihydro-1H-benzo[d]imidazol-1-yl)piperidine-2,6-dione]	8.6 nM	13.2 nM	–
CNc1cc(=O)n(-c2ccnc3c2cc([C@H](C)N2CC=C(c4c(C)cc(C(=O)N5CCC(CN6CCN(Cc7ccc8c(c7)C(C)(C)C(=O)N8[C@@H]7CCC(=O)NC7=O)CC6)CC5)cc4F)CC2)n3C)cc1F (single isomer, unassigned) [Example 3u89]	4.1 nM	43.7 nM	–
CNc1ccn(-c2ccnc3c2cc([C@H](C)N2CC=C(c4c(C)cc(C(=O)N5CCC(CN6CCN(c7cc8c(cc7F)n(C7CCC(=O)NC7=O)c(=O)n8C)CC6)CC5)cc4F)CC2)n3C)c(=O)c1 (stereo partly drawn) [Example 3u310, 3-(6-fluoro-5-(4-((1-(3-fluoro-5-methyl-4-(1-((S)-1-(1-methyl-4-(4-(methylamino)-2-oxopyridin-1 (2H)-yl)-1H-pyrrolo[2,3-b]pyridin-2-yl)ethyl)-1,2,3,6-tetrahydropyridin-4-yl)benzoyl)-piperidin-4-yl)methyl)piperazin-1-yl)-3-methyl-2-oxo-2,3-dihydro-1H-benzo[d]imidazol-1-yl)-piperidine-2,6-dione]	0.7 nM	0.4 nM	–
CNc1cc(=O)n(-c2ccnc3c2cc(CN2CCC(c4c(F)cc(C(=O)N5CCC(CN6CCN(Cc7ccc8c(c7)C(C)(C)C(=O)N8[C@H]7CCC(=O)NC7=O)CC6)CC5)cc4F)CC2)n3C)cc1F (single isomer, unassigned) [Example 3u58]	7.6 nM	12.6 nM	–
